Tests used:
[1] = biological target: T1, FabX (Helicobacter pylori, UniProt O25465); experiment: biochemical; parameters: FabX-FabI enzyme-coupled assay, NADH consumption read-out of FabX inhibition; details: for inhibition at 10 µM: read-out: Inhibition (%) 10 μM; for inhibition at 1 µM: read-out: Inhibition (%) 1 μM
T1 construct: gene HP_0773; recombinant from pQE2 vector in E. coli BL21(DE3) Rosetta, Ni-NTA, HiTrap-SP, Superdex75; FMN and [4Fe-4S] cofactors
T1 sequence (O25465 1-363): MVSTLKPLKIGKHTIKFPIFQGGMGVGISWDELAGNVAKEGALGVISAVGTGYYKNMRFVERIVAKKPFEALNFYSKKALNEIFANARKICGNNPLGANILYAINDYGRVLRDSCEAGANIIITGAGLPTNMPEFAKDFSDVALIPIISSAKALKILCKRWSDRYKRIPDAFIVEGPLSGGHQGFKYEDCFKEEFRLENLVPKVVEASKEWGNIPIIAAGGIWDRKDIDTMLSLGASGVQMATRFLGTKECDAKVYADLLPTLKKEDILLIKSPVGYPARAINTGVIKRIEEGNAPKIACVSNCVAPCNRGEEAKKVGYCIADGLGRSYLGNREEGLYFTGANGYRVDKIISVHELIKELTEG
Text: To discover small molecule inhibitors targeting FabX, we performed protein thermal shift assay (PTSA) based high‐throughput screening against an in‐house chemical library of 11000 small molecule compounds, and established a multienzymatic cascade reaction system by incorporating the enoyl acyl carrier protein reductase FabI from H. pylori into the hit validation system, where FabI catalyzes the reduction of FabX catalytic product enoyl‐ACP in the fourth step of the elongation cycle, accompanying the elimination of NADH (Figure 2A,B). […] Subsequently, the inhibitory activities of these derivatives at 10 × 10^−6 and 1 × 10^−6 M were evaluated, and the structure–activity relationship (SAR) was analyzed (Figure S2, Supporting Information). In the first round of SAR, we briefly examined the influence of the substituents’ positions (C3 and C4), the electronic effects, and the polarity in the A moiety. We synthesized compounds 1a‐1l and evaluated their enzymatic activities (Table S1, Supporting Information). […] In particular, 3‐CN (1e) and 3‐COOH (1i) enhanced the inhibitory activity. We speculate that these two groups may act as hydrogen bond acceptors, forming hydrogen bonds with FabX and enhancing the interaction. We then retained the 3‐CN group in the A moiety and optimized the B moiety to investigate the 2,4‐disubstitution by synthesizing 8a‐8c (Figure 3). […] [picture] Figure S1. Schematic diagram of Type-II fatty acid biosynthesis pathway (FAS-II) in Helicobacter pylori. FabX (red sphere) catalyzes the dehydrogenation and isomerization of the saturated acyl group on ACP (the fifth step in the elongation cycle) for cis-double bond introduction and UFA synthesis. The black and blue curves indicate the SFA and UFA synthesis processes, respectively, while the blue dashes indicate the absence of the conventional fabA gene in the genome of H. pylori. [picture] Figure S2. Bioactivity evaluation of FBX-1 derivatives at 10 μM and 1 μM in the FabX-FabI enzyme-coupled assay. [picture] Figure S3. Overexpression of FabX in strain BHKS211. BHKS210 (NSH57/Vec) and BHKS211 (NSH57/fabX) were cultured in BHI broth supplemented with 10% FCS to an OD600 of 0.3 and then harvested. RNA isolation, reverse transcription, and real-time PCR were performed as described in the EXPERIMENTAL METHODS section. The relative levels of fabX expression in BHKS211 compared to the control strain BHKS210 are represented. The data are the averages ± standard deviations from three independent experiments.

[2] = biological target: T1, FabX; experiment: FabX-FabI coupled assay, NADH absorbance […] nm; assay type: biochemical

SMILES | inhibition at 10 µM [1] [%] | inhibition at 1 µM [1] [%] | IC50 [2] [nM] | IC50 [1] [nM]
O=S(=O)(Nc1cccc(I)c1)c1cccnc1Nc1ccc(Cl)cc1 [1c, 2-((4-chlorophenyl)amino)-N-(3-iodophenyl)pyridine-3-sulfonamide] | 23 |  |  | 
N#Cc1ccc(NS(=O)(=O)c2cccnc2Nc2ccc(Cl)cc2)cc1 [1d, 2-((4-chlorophenyl)amino)-N-(4-cyanophenyl)pyridine-3-sulfonamide] | 12 |  |  | 
N#Cc1cccc(NS(=O)(=O)c2cccnc2Nc2ccc(Cl)cc2)c1 [1e] | 88 | 31 |  | 
COc1ccc(NS(=O)(=O)c2cccnc2Nc2ccc(Cl)cc2)cc1 [1f] | 23 |  |  | 
COc1cccc(NS(=O)(=O)c2cccnc2Nc2ccc(Cl)cc2)c1 [1g] | 21 |  |  | 
CCOC(=O)c1cccc(NS(=O)(=O)c2cccnc2Nc2ccc(Cl)cc2)c1 [1h] | 35 |  |  | 
O=C(O)c1cccc(NS(=O)(=O)c2cccnc2Nc2ccc(Cl)cc2)c1 [1i] | 65 | 19 |  | 
C#Cc1cccc(NS(=O)(=O)c2cccnc2Nc2ccc(Cl)cc2)c1 [1j] | 63 |  |  | 
O=S(=O)(Nc1ccc(F)nc1)c1cccnc1Nc1ccc(Cl)cc1 [1k] | 12 |  |  | 
O=S(=O)(NCc1ccccc1)c1cccnc1Nc1ccc(Cl)cc1 [1l] | 25 | 12 |  | 
N#Cc1cccc(NS(=O)(=O)c2cccnc2Nc2ccc(Cl)cc2Cl)c1 [8c] | 100 | 77 | 625 ± 82 | 
O=c1[nH]c(-c2cccc(NS(=O)(=O)c3cccnc3Nc3ccc(Cl)cc3Cl)c2)no1 [8k] |  |  | 665 ± 85 | 
O=S(=O)(Nc1cccc(-c2nnn[nH]2)c1)c1cccnc1Nc1ccc(Cl)cc1Cl [8l] |  |  | 904 ± 177 | 
O=C1COc2ccc(NS(=O)(=O)c3cccnc3Nc3ccc(Cl)cc3Cl)cc2N1 [8m] |  |  | 249 ± 38 | 
O=S(=O)(Nc1cccc(O)c1)c1cccnc1Nc1ccc(Cl)cc1Cl [8n] |  |  | 945 ± 111 | 
N#Cc1cccc(NS(=O)(=O)c2ccncc2Nc2ccc(Cl)cc2Cl)c1 [11a, N-(3-cyanophenyl)-3-((2,4-dichlorophenyl)amino)pyridine-4-sulfonamide] | 100 | 100 |  | 480 ± 61
N#Cc1cccc(NS(=O)(=O)c2ncccc2Nc2ccc(Cl)cc2Cl)c1 [11c, N-(3-cyanophenyl)-3-((2,4-dichlorophenyl)amino)pyridine-2-sulfonamide] | 60 | 17 |  | 
N#Cc1cccc(NS(=O)(=O)c2ccccc2Nc2ccc(Cl)cc2Cl)c1 [11d, N-(3-cyanophenyl)-2-((2,4-dichlorophenyl)amino)benzenesulfonamide] | 94 | 60 |  | 2380 ± 225
O=S(=O)(Nc1ccc(F)cc1)c1cccnc1Nc1ccc(Cl)cc1 [FBX-1] |  |  | 9700 ± 1000 | 

Reference: publication PMC12079444, “Antagonist Targeting the Species‐Specific Fatty Acid Dehydrogenase/Isomerase FabX for Anti‐H. pylori Infection” (Advanced Science, 2025)
